Two molecules from patent US10258602B2 (Ocera Therapeutics, Inc., priority 2007, dated 2019) can be followed below.

As a reminder, the Ki is the equilibrium dissociation constant of an inhibitor or competing ligand from its target. A high value points to a looser hold on the target. For orientation: Papp A→B means how fast a substance crosses the layer from the apical side. Read a high Papp A→B as ready permeation. The term Papp B→A denotes the apparent permeability from the basolateral to the apical side of a cell layer. In general, efflux ratio refers to a quotient of directional permeabilities that is used to spot active efflux. As a reminder, the bioavailability is the share of a dose that reaches the circulation, judged against a reference dose that is usually intravenous. In general, EC50 refers to the midpoint of the concentration-response curve. As a reminder, the fraction unbound is free concentration divided by total concentration. Higher therefore signals weak binding.

Where two headings read alike, the source gives them in different places.

One series has as its target T1, hGHS-R1a (Homo sapiens, UniProt Q92847).
T1 construct: expressed in transfected cells
Kind of series: Activation-desensitization profile, Ca2+ flux in HEK293 cells stably expressing hGHS-R1a. Type of series: cell-based. The following applies: higher positive = less desensitization potential. On the procedure: M. Activation-Desensitization Profile
It is well-known that agonists of G-protein coupled receptors can induce desensitization or tachyphylaxis, thereby limiting the potential of agents acting at the receptor as therapeutics for chronic use.
• 1. […] Agonist-induced Ca^+2 fluxes were measured after loading with Ca^+2 indicator Fluo-4-AM. • 3. […] Results
Background: Calcium flux is commonly read through the fluorescence of an indicator in the cells.

Series [1] concerns the target human growth hormone secretagogue receptor (hGHS-R1a) (Homo sapiens, UniProt Q92847). Kind of series: Competitive radioligand binding assay (ghrelin receptor), standard method A.
Another series is described as follows: in vitro. The note with it: human, Caco-2.
Series [2] in a line: Pharmacokinetic analysis (oral bioavailability, elimination half-life) in the rat. The format is in vivo. The source says:
D. Pharmacokinetic Analysis of Representative Compounds of the Invention
The pharmacokinetic behavior of compound of the invention can be ascertained by methods well known to those skilled in the art. (Wilkinson, G. R. “Pharmacokinetics: The Dynamics of Drug Absorption, Distribution, and Elimination” in Goodman & Gilman's The Pharmacological Basis of Therapeutics, Tenth Edition, Hardman, J. G.; Limbird, L. E., Eds., McGraw Hill, Columbus, Ohio, 2001, Chapter 1.) The following method was used to investigate the pharmacokinetic parameters (elimination half-life, total plasma clearance, etc.) for intravenous, subcutaneous and oral administration of compounds of the present invention. See also U.S. patent application Ser. No. 11/149,512 and Ser. No. 11/149,731 and Intl. Pat. Appl. No. PCT/US2007/017905.
The table below presents oral bioavailability and elimination half-life data in the rat for representative compounds of the present invention. The parameters were determined by HPLC-MS after oral administration of an 8 mg/kg dose of the compound, except for compound 822 where a 2 mg/kg dose was used.

The subject of the next series is fasted rats. Briefly: Gastric emptying in fasted rat model, standard method E. The format is in vivo. The following applies: average where repeated. How it is done:
E. Gastric Emptying in Fasted Rat Model
To examine the effects of compounds of the invention in a model for gastroparesis, compounds were evaluated for possible effects on gastric emptying in fasted rats. This model is used to determine the potential of compounds of the invention to promote motility in fasted rats.
• 1. Overnight-fasted rats (male, Wistar, 200 g, n=5/group) were given a meal (2 mL) of methylcellulose (2%) by intragastric gavage. The meal was labeled with phenol red (0.05%). • 2. Test articles (dosed at various concentrations, typically 1, 3, 10, 30 mg/kg), vehicle and positive control (metoclopramide, a 5-HT ligand and prokinetic agent currently prescribed for the treatment of GI disorders, including gastroparesis) were administered by oral gavage immediately after the meal (time=0). • 3. […] Total phenol red remaining in the stomach was quantified by a colorimetric method at 560 nm. • 5. A 30% or more increase in gastric emptying (as compared to the vehicle control) was considered significant. • 6. One-way ANOVA, Dunnet's post-hoc statistical test was applied Results
The effects of representative compounds of the invention in the rat gastric emptying model described in standard method E are provided in the following table. In cases where an experiment was conducted multiple times, the average of the individual results is presented.

The subject of series [3] is rat stomach fundus strips. Kind of series: tissue or blood. The note with it: read-out: EC50 values for contractility.
Procedure: (§1) Fundus strips (approximately 0.4×1 cm) were cut from the stomach of adult male Wistar rats parallel to the circular muscle fibers. They were placed between two platinum ring electrodes, 1 cm apart (Radnoti, ADInstruments, USA) in 10 ml tissue baths containing Krebs solution bubbled with 5% CO2 in O2 and maintained at 37° C. Tissues were suspended under 1.5 g resting tension. Changes of tension were measured isometrically with force transducers and recorded with a PowerLab 8/30 data acquisition system (ADInstruments, USA). Tissues were allowed to equilibrate for 60 min during which time bath solutions were changed every 15 min.
(§2) EFS was achieved by applying 0.5 ms pulses, 5 Hz frequency, at a maximally effective voltage of 70 V. EFS was applied for 30 sec at 3 min intervals for a 30 min initial period. This initial period was separated by a 5 min interval with wash out of the bath solution. Then, a second period of stimulation was started. […] Responses to the agents were measured and expressed as % of the mean of three or four pre-drug responses to EFS. All compounds were dissolved at 1 mM in distilled water or MeOH, as stock solutions.
A short description of series [4]: Plasma protein binding, human plasma (equilibrium dialysis). Type of series: in vitro ADME. The note with it: test concentration 3 μg/mL. The source says:
J. Plasma Protein Binding
The pharmacokinetic and pharmacodynamic properties of drugs are largely a function of the reversible binding of drugs to plasma or serum proteins such as albumin and α1-acid glycoprotein. In general, only unbound drug is available for diffusion or transport across cell membranes, and for interaction at the pharmacological target. On the other hand, drugs with low plasma protein binding generally have large volumes of distribution and rapid clearance since only unbound drug is available for glomerular filtration and, in some cases, hepatic clearance. Thus, the extent of plasma protein binding can influence efficacy, distribution and elimination. The ideal range for plasma protein binding is in the range of 87-98% for most drug products.
Protein binding studies were performed using human plasma. Briefly, 96-well microplates were used to incubate various concentrations of the test article for 60 min at 37° C. Bound and unbound fractions are separated by equilibrium dialysis, where the concentration remaining in the unbound fraction is quantified by LC-MS or LC-MS-MS analysis. […].
The table below presents protein binding data for representative compounds of the present invention in both human and rat plasma.
(In general: Equilibrium dialysis compares concentrations on both sides of a semipermeable membrane.)

For series [5], the system named is rat stomach fundus strips.
Procedure: as §1, §2

human growth hormone secretagogue receptor (hGHS-R1a), sequence (Q92847 whole entry): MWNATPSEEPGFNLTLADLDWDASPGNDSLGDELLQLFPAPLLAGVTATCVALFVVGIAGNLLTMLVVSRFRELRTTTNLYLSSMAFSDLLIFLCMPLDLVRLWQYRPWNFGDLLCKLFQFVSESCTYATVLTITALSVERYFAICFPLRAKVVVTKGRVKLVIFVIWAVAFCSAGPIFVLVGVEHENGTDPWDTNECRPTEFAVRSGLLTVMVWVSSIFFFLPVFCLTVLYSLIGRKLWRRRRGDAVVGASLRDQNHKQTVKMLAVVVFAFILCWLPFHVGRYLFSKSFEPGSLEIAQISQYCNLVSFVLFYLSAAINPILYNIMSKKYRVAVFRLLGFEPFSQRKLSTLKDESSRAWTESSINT
T1 sequence (Q92847 whole entry): as above
Procedure for in vitro: L. Determination of Caco-2 Permeability
Fully differentiated cell monolayers can be used to assess the membrane transport properties of novel compounds.
Permeability across the Caco-2 cell layer was determined by growing the cells on a membrane placed between two (donor and acceptor) chambers. […] Permeability in this direction represents intestinal absorption. Permeability may also be determined from the basolateral to the apical side of the Caco-2 cell. A higher apical to basolateral Papp, compared to the basolateral to apical Papp, is indicative of carrier-mediated transport.
Permeability (10 μM) for compounds of the invention in the apical to basolateral and basolateral to apical direction were tested in duplicate. Samples will be collected from the donor and acceptor chambers at the beginning (0 min) and following 60 min of incubation at 37° C. and stored frozen at −70° C. until bioanalysis. Samples for each test compound generated from the Caco-2 permeability assay were further analyzed by LC-MS-MS. The permeability of [^3H]-mannitol and [^3H]-propranolol were determined in parallel as controls.
The permeability coefficient (Papp) of each compound and radiolabeled standard was determined using the following equation:
where dQ/dT represents the permeability rate, Ci denotes the initial concentration in the donor compartment, and A represents the surface area of the filter. Ci is determined from the mean concentration of duplicate samples taken prior to addition to the donor compartment. Permeability rates were calculated by plotting the cumulative amount of compound measured in the acceptor compartment over time and determining the slope of the line by linear regression analysis. The duplicate and mean apical to basolateral and basolateral to apical Papp's were reported for each compound and standard.

Consider `CC(C)C[C@H]1NC(=O)[C@@H](C)N(C)C(=O)[C@H](C2CCCCC2)NC[C@H]2CCc3cccc(c3O2)CCCNC1=O` [Compound 801], for which, at hGHS-R1a, the “Δ(activity-desensitization) (pEC50 − pDC50)” value stood at 3.30. In series [1], this molecule gave a Ki of no more than 1 nM. Moreover, in the series “in vitro”, the Papp A→B at 60 min, 10 μM is 163 ×10⁻⁶ cm/s; the Papp B→A at 60 min, 10 μM was 110 ×10⁻⁶ cm/s; the efflux ratio at 60 min, 10 μM was 0.672. Besides, in series [2] (oral administration, 8 mg/kg dose, HPLC-MS), the “Oral Bioavailability (rat, % F)” value came out at 4 % F. The molecule also gave a bioavailability in series [2] (plasma, 8 mg/kg, oral administration (Example 3)) of 4%. Also, in series [2] (plasma, oral administration, 8 mg/kg dose, HPLC-MS, read-out: Elimination Half-life (t1/2, rat, min)), the half-life was found to be 42 min. For the same molecule, the “Percent Increase in Gastric Emptying After Oral Administration” value (shortened to “Percent Increase”) in the series on fasted rats (dose 3 mg/kg) is recorded as 27%. In addition, the “Percent Increase” value in the series with fasted rats (dose 10 mg/kg) worked out at 31%. The “Percent Increase” value in the series on fasted rats (dose 30 mg/kg) came to 40%. Further, in series [3], the EC50 was 300 nM. In series [4], this molecule had a free fraction (fraction unbound) at 60 min, 3 μg/mL of 0.116.

Molecule `CCCCCCCC(=O)OC[C@H](NC(=O)[C@H](CO)NC(=O)CN)C(=O)N[C@@H](Cc1ccccc1)C(=O)N[C@@H](CC(C)C)C(=O)N[C@@H](CO)C(=O)N1CCC[C@H]1C(=O)N[C@@H](CCC(=O)O)C(=O)N[C@@H](Cc1c[nH]cn1)C(=O)N[C@@H](CCC(N)=O)C(=O)N[C@@H](CCCNC(=N)N)C(=O)N[C@H](C(=O)N[C@@H](CCC(N)=O)C(=O)N[C@@H](CCC(N)=O)C(=O)N[C@@H](CCCNC(=N)N)C(=O)N[C@@H](CCCCN)C(=O)N[C@@H](CCC(=O)O)C(=O)N[C@@H](CO)C(=O)N[C@@H](CCCCN)C(=O)N[C@@H](CCCCN)C(=O)N1CCC[C@H]1C(=O)N1CCC[C@H]1C(=O)N[C@@H](C)C(=O)N[C@@H](CCCCN)C(=O)N[C@@H](CC(C)C)C(=O)N[C@@H](CCC(N)=O)C(=O)N1CCC[C@H]1C(=O)N[C@@H](CCCNC(=N)N)C(=O)O)C(C)C` [Ghrelin] gave a concentration for a half-maximal effect (EC50) in series [5] of 5 nM.
